According to ChEMBL document CHEMBL1152405, “Bis-anthracenyl isoxazolyl amides have enhanced anticancer activity” (Bioorg Med Chem Lett, 2009):

Experiments:
Assay type in all cases: functional
M14 = assay: Growth inhibition of human M14 cells at 10 uM after 24 hrs by MTT assay relative to control; parameters: scale not given: the % may be the effect or the level left
MDA-MB-468 = assay: Growth inhibition of human MDA-MB-468 cells at 10 uM after 24 hrs by MTT assay relative to control; parameters: scale not given: the % may be the effect or the level left
SW-620 = assay: Growth inhibition of human SW620 cells at 10 uM after 24 hrs by MTT assay relative to control; parameters: scale not given: the % may be the effect or the level left
TK-10 = assay: Growth inhibition of human TK10 cells after 24 hrs by MTT assay; conditions: TK-10, 24 h
SN12C = assay: Growth inhibition of human SN12C cells after 24 hrs by MTT assay
OVCAR-4 = assay: Growth inhibition of human OVCAR4 cells at 10 uM after 24 hrs by MTT assay relative to control; parameters: scale not given: the % may be the effect or the level left
A498 = assay: Growth inhibition of human A498 cells after 24 hrs by MTT assay; conditions: A498, 24 h
MDA-MB-231 = assay: Growth inhibition of human MDA-MB-231 cells at 10 uM after 24 hrs by MTT assay relative to control; parameters: scale not given: the % may be the effect or the level left
[1] = Growth inhibition of human […] cells at 10 uM after 24 hrs by MTT assay relative to control; parameters: scale not given: the % may be the effect or the level left
[2] = Growth inhibition of human Hs 578T cells at 10 uM after 24 hrs by MTT assay relative to control; parameters: scale not given: the % may be the effect or the level left
KM12 = assay: Growth inhibition of human KM12 cells at 10 uM after 24 hrs by MTT assay relative to control; parameters: scale not given: the % may be the effect or the level left
OVCAR-8 = assay: Growth inhibition of human OVCAR8 cells after 24 hrs by MTT assay; conditions: OVCAR-8, 24 h
[3] = read-out: LC50 (the source's name)
[4] = read-out: pLC50 (the source's name) (converted)

## Cc1onc(-c2c3ccccc3c(Cl)c3ccccc23)c1C(=O)Nc1cc(C(=O)NCCCN(C)CCCNC(=O)c2cc(NC(=O)c3c(-c4c5ccccc5c(Cl)c5ccccc45)noc3C)cn2C)n(C)c1
M14
  Activity: -92.68%
MDA-MB-468
  Activity: -100%
SW-620
  Activity: -100%
TK-10
  TGI: 4590 nM
TK-10; read-out: GI50
  GI50: 2150 nM
TK-10; [3]
  CC50: 9770 nM
TK-10; read-out: pGI50 (converted)
  GI50: 2140 nM
TK-10; [4]
  CC50: 9770 nM
SN12C
  TGI: 3140 nM
SN12C; read-out: GI50
  GI50: 1650 nM
SN12C; read-out: pGI50 (converted)
  GI50: 1660 nM
OVCAR-4
  Activity: -100%
A498
  TGI: 17700 nM
A498; read-out: GI50
  GI50: 2630 nM
A498; [3]
  CC50: 44400 nM
A498; read-out: pGI50 (converted)
  GI50: 2630 nM
A498; [4]
  CC50: 44700 nM
MDA-MB-231
  Activity: -100%
[1]
  Activity: -100%
[2]
  Activity: -71.85%
KM12
  Activity: -100%
OVCAR-8
  TGI: 4090 nM
OVCAR-8; read-out: GI50
  GI50: 1970 nM
OVCAR-8; read-out: pGI50 (converted)
  GI50: 2000 nM
